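Test compounds were applied to cells in 96-well plates for 48 hours at 5 doses. GI50: concentration for 50% inhibition of growth. TGI marks complete inhibition of growth.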 Where a SMILES comes first, the peptide text is derived from it. The star is where a group is joined. Cbz = O=C(OCc1ccccc1)*; Boc = CC(C)(C)OC(=O)*; OBn = c1ccc(CO*)cc1
What was measured:
Experiment in all cases: inhibition of tumour cell growth, NCI panel, 48 h
MDA-MB-435 = system: MDA-MB-435
LOX IMVI melanoma = system: LOX IMVI melanoma
DU-145 prostate = system: DU-145 prostate
SR leukemia = system: SR leukemia
PC-3 prostate = system: PC-3 prostate
RXF 393 renal = system: RXF 393 renal
SF-539 CNS = system: SF-539 CNS
NCI-H522 lung = system: NCI-H522 lung
T-47D breast = system: T-47D breast
MDA-MB-231 breast = system: MDA-MB-231 breast

Structure (SMILES)	TGI (MDA-MB-435)	TGI (LOX IMVI melanoma)	TGI (DU-145 prostate)	TGI (SR leukemia)	TGI (PC-3 prostate)	TGI (RXF 393 renal)	TGI (SF-539 CNS)	TGI (NCI-H522 lung)	TGI (T-47D breast)	TGI (MDA-MB-231 breast)	GI50 (MDA-MB-435)	GI50 (LOX IMVI melanoma)	GI50 (DU-145 prostate)	GI50 (SR leukemia)	GI50 (PC-3 prostate)	GI50 (RXF 393 renal)	GI50 (SF-539 CNS)	GI50 (NCI-H522 lung)	GI50 (T-47D breast)	GI50 (MDA-MB-231 breast)
COC(=O)C(CCCCNC(=O)OCc1ccccc1)NC(=O)C(CCC(=O)OCc1ccccc1)NC(=O)OC(C)(C)C (stereo not given) (Boc-Glu(OBn)-Lys(Cbz)-OMe; configuration not given here)	> 100 µM	> 100 µM	> 100 µM	> 100 µM	> 100 µM	> 100 µM	> 100 µM	> 100 µM	> 100 µM	> 100 µM										
Cc1ccc(NC(=O)c2cc(S(=O)(=O)N3CCNNC3=O)c(S)cc2Cl)cc1	> 100 µM	> 100 µM	> 100 µM	> 100 µM	> 100 µM	80.6 µM	> 100 µM	> 100 µM	> 100 µM	> 100 µM										
COC(=O)[C@@H](COC(=O)/C=C/c1ccc(OC(C)=O)c(OC(C)=O)c1)NC(=O)/C=C/c1ccc(OC(C)=O)c(OC(C)=O)c1	> 100 µM	38.1 µM	60.7 µM	> 100 µM	> 100 µM	> 100 µM	74.7 µM	35.1 µM	34.9 µM	82.4 µM										
O=C(Nc1ccc(-n2cc(-c3ccncc3)c(-c3ccc(O)c(Cl)c3)n2)cc1)c1ccc(Cl)c(Cl)c1	> 32.5 µM	2.88 µM	> 32.5 µM	> 32.5 µM	> 32.5 µM	1.1 µM	2.25 µM	> 32.5 µM	> 32.5 µM	1.11 µM	2.06 µM	0.779 µM	3.91 µM	1.19 µM	1.35 µM	0.49 µM	0.656 µM	0.801 µM	2.37 µM	0.51 µM
Nc1nc(Cl)c(N)c(NCC2(CO)CC(O)C2)n1 (stereo not given)	> 100 µM	> 100 µM	> 100 µM	> 100 µM	> 100 µM	> 100 µM	> 100 µM	> 100 µM	> 100 µM	> 100 µM										
O=C(CCl)Nc1ccc(-c2nc3ccccc3s2)cc1	12.2 µM	2.31 µM	38 µM	5.49 µM	6.71 µM	7.67 µM	8.16 µM	3.64 µM	5.59 µM	16.8 µM										
C[N+](C)(C)C(Cc1c[nH]c(=S)[nH]1)C(=O)O (stereo not given)	> 100 µM	> 100 µM	> 100 µM	> 100 µM	> 100 µM	> 100 µM	> 100 µM	> 100 µM	> 100 µM	> 100 µM										
O=C1c2ccccc2-c2ccc(N(Cc3ccc(Br)cc3)Cc3ccc(Br)cc3)cc21	> 100 µM	> 100 µM	> 100 µM	> 100 µM	> 100 µM	> 100 µM	> 100 µM	> 100 µM	> 100 µM	> 100 µM										
CSc1nc2ccccc2c(=O)n1-c1cccc(C)c1	> 100 µM	> 100 µM	> 100 µM	49.7 µM	> 100 µM	> 100 µM	> 100 µM	> 100 µM	> 100 µM	> 100 µM										
O=Cc1cc(O)ccc1Br	9.77 µM	33.4 µM	> 100 µM	17.3 µM	> 78.4 µM	> 100 µM	60.5 µM	> 94.3 µM	> 100 µM	> 100 µM										
NC(N)=NCCCS(=O)(=O)Nc1ccc(Nc2c3ccccc3nc3cc([N+](=O)[O-])ccc23)cc1	> 100 µM	> 75.7 µM	25.2 µM	> 100 µM	67.9 µM	67.2 µM	52.1 µM	61 µM	11.4 µM	66.5 µM										
COc1cc(O)c2c(=O)cc(C3(OC(C)=O)C=CC(OC4OC(CO)C(O)C(O)C4O)C=C3)oc2c1 (stereo not given)	> 100 µM	> 100 µM	> 100 µM	> 100 µM	> 100 µM	> 100 µM	> 100 µM	> 100 µM	> 100 µM	> 100 µM										
CSC(=S)Nc1cc(C)ccn1	> 100 µM	> 100 µM	> 100 µM	> 100 µM	> 100 µM	> 100 µM	> 100 µM	> 100 µM	> 100 µM	88.8 µM										
COC(=O)C1(Cc2ccccc2C)Cc2ccc(C)cc2C1=O (stereo not given)	> 100 µM	45.9 µM	> 100 µM	33.1 µM	92.6 µM	96.4 µM	> 100 µM	65.9 µM	> 100 µM	> 100 µM										
N/C(=N/O)c1cn(C2OC(CO)C(O)C2O)c2ncnc(NO)c12 (stereo not given)	0.805 µM	4.53 µM	> 40 µM	0.262 µM	3.17 µM	14.7 µM	5.03 µM	0.392 µM	> 35.3 µM	5.05 µM										
ClCc1nc2cc(Cl)ccc2o1	8.07 µM	6.74 µM	14.1 µM	> 37 µM	19.6 µM	29.8 µM	17.8 µM	3.37 µM	5.15 µM	10.2 µM										
CCOC(=O)c1c(C)n(-c2ccc(C)cc2)c2c1cc(O)c1[nH]c3c(c12)CCCC3	62.2 µM	30.2 µM	42.5 µM	11.5 µM	52.3 µM	27 µM	30.2 µM	27.4 µM	> 100 µM	81.7 µM										
COC(=O)C1CCCCCCCCCCC12SCCCS2 (stereo not given)	36.2 µM	35.4 µM	39.2 µM	34.9 µM	50 µM	36.4 µM	47.4 µM	43.5 µM	> 100 µM	45.2 µM										
C=CCSC1=N/C(=C\c2ccco2)C(=O)N1CC=C	> 100 µM	> 100 µM	> 100 µM	> 100 µM	> 100 µM	65.7 µM	> 100 µM	> 100 µM	> 100 µM	> 100 µM										
Nc1nc(Cl)cc(NCC2(CO)CC(O)C2)n1 (stereo not given)	> 100 µM	> 100 µM	> 100 µM	> 100 µM	> 100 µM	> 100 µM	> 100 µM	> 100 µM	> 100 µM	> 100 µM										
COc1cc([C@@H]2c3cc4c(cc3[C@@H](N=Cc3ccc(C(=O)O[C@H]5C[C@H]6OC[C@@]6(OC(C)=O)[C@H]6[C@H](OC(=O)c7ccccc7)[C@]7(O)C[C@H](OC(=O)[C@H](OC(=O)c8ccc(C=N[C@@H]9c%10cc%11c(cc%10[C@@H](c%10cc(OC)c(O)c(OC)c%10)[C@H]%10C(=O)OC[C@@H]%109)OCO%11)cc8)[C@@H](NC(=O)c8ccccc8)c8ccccc8)C(C)=C([C@@H](OC(C)=O)C(=O)[C@]56C)C7(C)C)cc3)C3COC(=O)C32)OCO4)cc(C)c1O (stereo not given in full)	9.32 µM	> 50 µM	> 50 µM	> 50 µM	> 27.5 µM	> 50 µM	> 37.8 µM	> 50 µM	> 50 µM	> 43.4 µM										
CCCCC[C@H]1CC=CC(=O)O1	23 µM	18.1 µM	36.1 µM	15.4 µM	69.3 µM	9.16 µM	4.82 µM	11.8 µM	30.9 µM	23 µM										
CC1(c2nc3ccccc3[nH]2)CCC(CO)C(C)(C)O1 (stereo not given)	> 100 µM	> 100 µM	> 100 µM	33.7 µM	> 100 µM	> 100 µM	> 100 µM	> 100 µM	> 100 µM	> 100 µM										
O=C(N/N=C1\CCc2ccccc21)N/N=C1\CCc2ccccc21	> 100 µM	> 100 µM	> 100 µM	> 100 µM	> 100 µM	> 100 µM	> 100 µM	> 100 µM	> 100 µM	29.4 µM										
N#Cc1c(-c2ccccc2)cc(Nc2ccc(F)cc2)n2c1nc1ccccc12	> 100 µM	> 30.4 µM	> 100 µM	> 100 µM	4.97 µM	> 31.4 µM	> 22.7 µM	5.83 µM	19 µM	65.2 µM										

Reference: PubChem BioAssay (NCI)
